Key:
NRF2 [1] = assay: NRF2 and HO-1 protein levels in mouse tissues after IP treatment; format: in vivo; details: C57BL/6 mice
Method: FIG. 9. PHAR activates NRF2 and HO-1 in liver. A), UV and MS spectrum derived from the HPLC-MS analysis of PHAR dissolved in methanol for the identification of peaks associated with the compound. A blue rectangle surrounds the mass associated with PHAR. (B-D), the mice were treated with the vehicle (Tween-80+PBS, 1:13), 50 mg/kg of PHAR, or 50 mg/kg of SFN (saline) as a positive control by means of intraperitoneal (IP) injection for 2 hours. B), HPLC-MS UV and MS spectra derived from representative liver samples of both experimental groups used for determining PHAR levels in the liver 120 min after a single IP injection of 50 mg/kg. A blue rectangle surrounds the mass associated with PHAR. C), representative immunoblots showing NRF2, HO1, and LAMINB protein levels as the liver extract loading control. D), densitometric analysis of NRF2 protein levels of the representative immunoblots shown in (C), expressed as a ratio of NRF2/LAMINB. Statistical analysis was performed with one-way ANOVA followed by the Bonferroni test to compare inter-group differences. ***p<0.001 vs. vehicle. E) and F), the mice were treated daily with vehicle (Tween-80+PBS, 1:13) or 50 mg/kg of PHAR by means of intraperitoneal injection for 5 days. E), representative immunoblots showing NRF2, HO1, and LAMINB protein levels as loading control in brain, liver and kidney. F), densitometric analysis of NRF2 and HO1 protein levels in the liver tissue of the representative immunoblots shown in (E), expressed as a ratio of NRF2/LAMINB or HO1/LAMINB levels. Statistical analysis was performed with a Student t test to compare inter-group differences. **p<0.01 vs. vehicle.
Once the mechanism of action of PHAR was deciphered, the capacity thereof to induce NRF2 levels in a murine model was evaluated. C57BL/6 mice received a single intraperitoneal (IP) injection of 50 mg/kg PHAR (Tween-80+PBS, 1:13) or 50 mg/kg of SFN (saline) as a positive control. The UV spectrum derived from the HPLC-MS study of the PHAR compound dissolved in methanol alone helped the identification of the peak associated with the compound for subsequent identification in the tissue analysis. […] Taking this as a reference point, liver tissue analysis was performed to check for the presence of PHAR therein.
For this reason, C57BL/6 mice were treated daily by IP route for 5 days with 50 mg/kg of vehicle or 50 mg/kg of PHAR.

NRF2 [2] = assay: HO-1 induction in Nrf2−/− versus Nrf2+/+ MEFs; format: cell-based, mouse
Method: FIG. 5. PHAR-mediated NRF2 activation is independent of KEAP1 and is responsible for the increase in the expression of its targets. (A-D) Serum-deprived MEFs originating from wild-type (WT) or KEAP1 null (Keap1−/−) mice were treated with 10 μM of PHAR for the indicated times. 0.1% DMSO was used as a vehicle. A), representative immunoblots of NRF2, HO1, KEAP1, LAMINB, and GAPDH as loading controls. B) and C), densitometric analysis of NRF2 and HO1 protein levels of the representative immunoblots of (A), expressed as a ratio of NRF2/LAMINB or HO1/GAPDH. The data is depicted as means±SEM (n=3). Statistical analysis was performed with two-way ANOVA followed by the Bonferroni test to check inter-group differences. D), the mRNA levels of Hmox-1, Nqo1, Aox1, Gc1c, and Gc1m were determined after 8 h of 10 μM PHAR by means of qRT-PCR and normalized by means of average Gapdh, Tbp, and β-actin. The data is depicted as mean±SEM (n=3). Statistical analysis was performed with two-way ANOVA followed by the Bonferroni test to check inter-group differences. *p<0.05; **p<0.01; ***p<0.001 vs. 0 of MEF-WT. (E-H), Serum-deprived MEFs from wild-type (WT) or NRF2 null (Nrf2−/−) mice were subjected to 10 μM of PHAR for the indicated times. 0.1% DMSO was used as a vehicle. E), representative immunoblots of NRF2, HO1, KEAP1, LAMINB, and GAPDH as loading controls. F) and G), densitometric analysis of NRF2 and HO1 protein levels of the representative immunoblots of (E), expressed as a ratio of NRF2/LAMINB or HO1/GAPDH. […] H), the mRNA levels of Hmox-1, Nqo1, Aox1, Gclc, and Gclm were determined after 8 h of 10 μM PHAR by means of qRT-PCR and normalized by means of average Gapdh, Tbp, and β-actin. […]
From a viewpoint of biopharmaceutical usefulness, it is important to determine if PHAR acts on KEAP1/NRF2 interaction, or if it represents, in contrast, a novel approach directed specifically at β-TrCP/NRF2 interaction. […] As an additional control, the HO-1 levels in MEFs originating from NRF2 knock-out (Nrf2^−/−) and wild-type (Nrf2^+/+) mice from the same litter were analyzed by immunoblot. […]

In the case of `O=C1[C@@H]2[C@H](Cc3c[nH]c4ccccc34)N[C@]3(C(=O)Nc4ccc(Cl)cc43)[C@@H]2C(=O)N1c1ccc2c(c1)OCCO2` [PHAR], the “HO1 levels in kidney” value (NRF2 [1]; IP 50 mg/kg daily for 5 days) is reported as “not further increased”, the “NRF2 and HO1 levels in brain” value (NRF2 [1]; IP 50 mg/kg daily for 5 days) is reported as “not modified” and the “NRF2 and HO-1 in liver” value (NRF2 [1]; IP 50 mg/kg daily for 5 days, 120 minutes after last administration) is reported as “significant increase of NRF2 and HO-1 in liver”. For the same compound, the “liver HO-1 levels” value (NRF2 [1]; single IP 50 mg/kg, 120 min) was “did not result in increased HO-1 levels”, the “liver NRF2 levels” value (NRF2 [1]; single IP 50 mg/kg, 120 min) was “significant NRF2 accumulation” and the “HO-1 increase in MEFs from Nrf2−/− mice” value (NRF2 [2]; PHAR 10 μM, 2, 4, 8 h) was “not observed”. The “HO-1 levels in MEFs from Nrf2+/+ mice” value (NRF2 [2]; PHAR 10 μM, 2, 4, 8 h) was “significant increase in HO-1” and the “mRNA levels of NRF2 targets in Nrf2+/+ and Nrf2−/− MEFs” value (NRF2 [2]; PHAR 10 μM, 8 h) was “The same result was obtained”.

— US12590100B2, “Tetrahydro-spiroindoline-pyrrolopyrrole-triones inhibitors of the NRF2-β-TrCP interaction for use in the treatment of fatty liver disease” (Universidad Autonoma De Madrid, priority 2021, dated 2026)
